In patent US10881709B2, “Immune system modulators and compositions” (Canimguide Therapeutics AB, priority 2015, dated 2021):
Peptide text beside a SMILES is read from it.

Experiments:
[1] = Toxicological study and observation of side effects in dogs; type: in vivo, dog; details: 200 nM in 1 mL subcutaneously and 40 nM in 200 microliters intra-tumourally
Method: So far nine dogs have been treated with P28R in accordance with some embodiments herein, 4 in the toxicological study (CiToxLab, Denmark) with 200 nM administered in 1 mL subcutaneously and 5 dogs in the treatment study reported here with 40 nM in 200 microliters intra tumourally.
More than 20 dogs have been treated with P28R, including 4 in the toxicological study (CiToxLab®, Denmark) with 200 nM administered in 1 mL subcutaneously and 17 dogs in the treatment study reported here with 40 nM in 200 microliters intra-tumourally.

[2] = Toxicological aspects of P28R in dogs (systemic side effects); type: in vivo, dog; details: 21 dogs: 4 with 200 nM in 1 mL subcutaneously, 17 with 40 nM in 200 microliters intra-tumourally
Method: Twenty-one dogs have been treated with P28R, 4 in the toxicological study (CiToxLab®, Denmark) with 200 nM administered in 1 mL subcutaneously and 17 dogs in the treatment study reported here with 40 nM in 200 microliters intra-tumourally.

[3] = test system: spontaneous canine tumours; assay: Intra-tumoral treatment of spontaneous tumours in dogs; type: in vivo; details: single dog
Method: Seventeen spontaneous canine tumours, of variable histology have been treated by intra-tumoral injection of 40 nmol P28R in 200 microliters. The tumours were resected 3-5 days later, immediately snap frozen and stored at −80° C. until further processed. A detailed description of treatment of the tumors is provided below (see Examples 50-60). In these examples, 15 control dogs with untreated tumours (5 snap frozen and 10 FFPE) were also examined.
A summary is provided for 7 dogs with treated mammary tumours and 5 untreated control dogs (see FIG. 88). Tumour cells (881 for treated dogs, 882 for untreated control dogs) and lymphocytes (883 for both treated dogs and untreated control dogs) were counted at 400× magnification. The ratio between these cells was used as a measure on the inflammatory infiltrate (FIG. 88). The reproducibility and the influence of tumour heterogeneity on cell counts were evaluated by counting several areas from each tumour section.
The therapeutic efficacy was evaluated as the presence of an inflammatory infiltrate and the occurrence of tumour cell regressive changes. As migration of effector cells close to tumour cells is one important, but often inhibited function of these cells, the effect of P28R was specifically evaluated as the presence of inflammatory cells infiltrating into the tumour cell areas close to the tumour cells. […]

Question: What does the source list for CC(C)C[C@H](NC(=O)[C@H](CO)NC(=O)[C@H](CC(C)C)NC(=O)[C@H](CCCCN)NC(=O)[C@@H](NC(=O)[C@H](Cc1ccccc1)NC(=O)[C@H](Cc1ccccc1)NC(=O)[C@@H](NC(=O)[C@H](CC(=O)O)NC(=O)[C@H](CC(C)C)NC(=O)[C@H](CCCCN)NC(=O)[C@@H](N)CCCCN)[C@@H](C)O)C(C)C)C(=O)N[C@@H](Cc1ccccc1)C(=O)N[C@H](C(=O)N[C@@H](CCC(=O)O)C(=O)N[C@@H](CCCNC(=N)N)C(=O)O)[C@@H](C)O [P28R] (H-KKLDTFFVKLSLFTER-OH; N-terminus and C-terminus assumed)?
Answer: systemic side effects [1]: None of these dogs showed any systemic side effects; systemic side effects [2]: None of these dogs showed any systemic side effects; clinical observations after injection until resection [3]: No systemic adverse events were observed
